Patent US20240216401A1, “COMBINATION THERAPY BY USING AKR1C3-ACTIVATED COMPOUND WITH IMMUNE CHECKPOINT INHIBITOR” (OBI Pharma, Inc., priority 2021, published 2024)
“And” between values parts separate entries of the source, which are not always exact repeats. Equal values may be shown once.

Tested on: CTL cells (CD45^+CD8^+ T cells) in tumor-infiltrating lymphocytes
Assay: Example 2: flow cytometry, percentage of CTL cells in TILs
Assay type: in vivo, Mus musculus
Method: Mice were sacrificed by CO2 euthanasia at the end of the study duration, and the connective tissue around tumor was resected. The tumor samples were then weighed and cut equally into three sections if the tumor weight over 400 mg. The tumor tissue was prepared for the isolation of tumor-infiltrating lymphocytes (TILs). The rest of one section was fixed in 10% formaldehyde and embedded in paraffin; the other was stored at a temperature below −70° C.
The tumor samples were dissected into smaller fragments using scalpels and then digested with a cocktail of collagenase, DNase I, and Hyaluronidase (Collagenase #C5138, DNase I #D5025, Hyaluronidase #H6254, SigmaAldrich) for at least 2 hours.
Cells were stained with the fluorescently conjugated surface antibodies and incubated for 30 minutes at 4° C., and then resuspended in staining buffer for flow cytometric analysis. Flow cytometry was done using a Navios EX Flow Cytometer (Beckman Coulter). Data were analyzed using the Kaluza Analysis Software (Beckman Coulter).

In the case of `C[C@H](OP(=O)(N1CC1)N1CC1)c1ccc([N+](=O)[O-])c(Oc2cccc(C(=O)N(C)C)c2)c1` [OBI-3424, (S)-1-(3-(3-N,N-dimethylaminocarbonyl)phenoxyl-4-mtrophenyl)-1-ethyl-N,N′-bis(ethylene)phosphoramidate], the “CTL cells (CD45^+CD8^+ T cells) in TILs” value (Example 2, mean±SEM, OBI-3424 1 mg/kg, alone (G3) or with anti-hPD-1 (G6), vehicle 15.53±5.66%) is reported as 33.50±3.38%, the “CD25^+ CTL cells (CD45^+ CD8^+CD25^+) Cell count (×10^5)” value (from here on “CD25^+ CTL cells … (×10^5)”) (G2: 0.3 mg/kg, group mean) is reported as 2.93 ×10^5 and the “CD25^+ CTL cells (CD45^+CD8^+ CD25^+) CTL Gated %” value (G2: 0.3 mg/kg, group mean) is reported as 5.60%. For the same compound, the “CD25^+ CTL cells (CD45^+CD8^+ CD25^+) Total %” value (G2: 0.3 mg/kg, group mean) was 1.33%, the “CD69^+ CTL cells (CD45^+ CD8^+CD69^+) CTL Gated %” value (G2: 0.3 mg/kg, group mean) was 69.71% and the “CD69^+ CTL cells (CD45^+ CD8^+CD69^+) Cell count (×10^5)” value (“CD69^+ CTL cells … (×10^5)” below) (G2: 0.3 mg/kg, group mean) was 40.97 ×10^5. The “CD69^+ CTL cells (CD45^+ CD8^+CD69^+) Total %” value (G2: 0.3 mg/kg, group mean) was 20.23%, the “CTL cells (CD45^+CD8^+) CD45^+ Gated %” value (G2: 0.3 mg/kg, group mean) was 60.54% and the “CTL cells (CD45^+CD8^+) Cell count (×10^5)” value (G2: 0.3 mg/kg, group mean) was 55.19 ×10^5. For the same compound, the “CTL cells (CD45^+CD8^+) Total %” value (G2: 0.3 mg/kg, group mean) was 26.12%, the “Granzyme B^+ CTL cells (CD45^+ CD8^+GrB+) CTL Gated %” value (G2: 0.3 mg/kg, group mean) was 90.76% and the “Granzyme B^+ CTL cells (CD45^+ CD8^+GrB+) Cell count (×10^5)” value (shortened to “Granzyme B^+ CTL cells … (×10^5)”) (G2: 0.3 mg/kg, group mean) was 61.54 ×10^5. The “Granzyme B^+ CTL cells (CD45^+ CD8^+GrB+) Total %” value (G2: 0.3 mg/kg, group mean) was 26.31%, the “IFN-γ^+ CTL cells (CD45^+ CD8^+ IFN-γ^+) CTL Gated %” value (G2: 0.3 mg/kg, group mean) was 0.89% and the “IFN-γ^+ CTL cells (CD45^+ CD8^+ IFN-γ^+) Cell count (×10^5)” value (“IFN-γ^+ CTL cells … (×10^5)” for short) (G2: 0.3 mg/kg, group mean) was 0.47 ×10^5. The “IFN-γ^+ CTL cells (CD45^+ CD8^+ IFN-γ^+) Total %” value (G2: 0.3 mg/kg, group mean) was 0.20%, the “PD-1^+ CTL cells (CD45^+CD8^+ PD-1^+) CTL Gated %” value (G2: 0.3 mg/kg, group mean) was 75.96% and the “PD-1^+ CTL cells (CD45^+CD8^+ PD-1^+) Cell count (×10^5)” value (“PD-1^+ CTL cells … (×10^5)” below) (G2: 0.3 mg/kg, group mean) was 42.52 ×10^5. For the same compound, the “PD-1^+ CTL cells (CD45^+CD8^+ PD-1^+) Total %” value (G2: 0.3 mg/kg, group mean) was 18.42%, the “CD25^+ CTL cells … (×10^5)” value (G2: 0.3 mg/kg, individual mice) was 1.91 ×10^5 and 3.89 ×10^5 and 7.72 ×10^5 and 0.35 ×10^5 and 3.13 ×10^5 and 0.58 ×10^5 and the “CD25^+ CTL cells (CD45^+CD8^+ CD25^+) CTL Gated %” value (G2: 0.3 mg/kg, individual mice) was 11.79% and 5.81% and 3.87% and 3.93% and 4.86% and 3.31%. The “CD25^+ CTL cells (CD45^+CD8^+ CD25^+) Total %” value (G2: 0.3 mg/kg, individual mice) was 0.98% and 1.90% and 1.43% and 1.62% and 1.27% and 0.80%, the “CD69^+ CTL cells (CD45^+ CD8^+CD69^+) CTL Gated %” value (G2: 0.3 mg/kg, individual mice) was 62.46% and 73.01% and 61.79% and 85.14% and 68.69% and 67.19% and the “CD69^+ CTL cells … (×10^5)” value (G2: 0.3 mg/kg, individual mice) was 10.13 ×10^5 and 48.79 ×10^5 and 123.34 ×10^5 and 7.53 ×10^5 and 44.17 ×10^5 and 11.85 ×10^5. For the same compound, the “CD69^+ CTL cells (CD45^+ CD8^+CD69^+) Total %” value (G2: 0.3 mg/kg, individual mice) was 5.21% and 23.86% and 22.84% and 35.19% and 17.92% and 16.34%, the “CTL cells (CD45^+CD8^+) CD45^+ Gated %” value (G2: 0.3 mg/kg, individual mice) was 43.92% and 72.25% and 73.64% and 66.97% and 60.34% and 46.12% and the “CTL cells (CD45^+CD8^+) Cell count (×10^5)” value (G2: 0.3 mg/kg, individual mice) was 15.97 ×10^5 and 54.79 ×10^5 and 171.72 ×10^5 and 9.75 ×10^5 and 66.26 ×10^5 and 12.67 ×10^5. The “CTL cells (CD45^+CD8^+) Total %” value (G2: 0.3 mg/kg, individual mice) was 8.21% and 26.79% and 31.80% and 45.54% and 26.88% and 17.47%, the “Granzyme B^+ CTL cells (CD45^+ CD8^+GrB+) CTL Gated %” value (G2: 0.3 mg/kg, individual mice) was 66.16% and 97.44% and 95.50% and 85.88% and 99.84% and 99.74% and the “Granzyme B^+ CTL cells … (×10^5)” value (G2: 0.3 mg/kg, individual mice) was 11.61 ×10^5 and 69.08 ×10^5 and 196.18 ×10^5 and 6.59 ×10^5 and 69.09 ×10^5 and 16.66 ×10^5. For the same compound, the “Granzyme B^+ CTL cells (CD45^+ CD8^+GrB+) Total %” value (G2: 0.3 mg/kg, individual mice) was 5.97% and 33.78% and 36.33% and 30.78% and 28.03% and 22.98%, the “IFN-γ^+ CTL cells (CD45^+ CD8^+ IFN-γ^+) CTL Gated %” value (G2: 0.3 mg/kg, individual mice) was 2.04% and 0.66% and 0.54% and 0.36% and 1.10% and 0.64% and the “IFN-γ^+ CTL cells … (×10^5)” value (G2: 0.3 mg/kg, individual mice) was 0.35 ×10^5 and 0.47 ×10^5 and 1.08 ×10^5 and 0.03 ×10^5 and 0.76 ×10^5 and 0.11 ×10^5. The “IFN-γ^+ CTL cells (CD45^+ CD8^+ IFN-γ^+) Total %” value (G2: 0.3 mg/kg, individual mice) was 0.18% and 0.23% and 0.20% and 0.13% and 0.31% and 0.15%, the “PD-1^+ CTL cells (CD45^+CD8^+ PD-1^+) CTL Gated %” value (G2: 0.3 mg/kg, individual mice) was 95.86% and 68.60% and 72.47% and 49.67% and 96.18% and 73.00% and the “PD-1^+ CTL cells … (×10^5)” value (G2: 0.3 mg/kg, individual mice) was 15.31 ×10^5 and 37.59 ×10^5 and 124.42 ×10^5 and 4.84 ×10^5 and 63.74 ×10^5 and 9.24 ×10^5. For the same compound, the “PD-1^+ CTL cells (CD45^+CD8^+ PD-1^+) Total %” value (G2: 0.3 mg/kg, individual mice) was 7.87% and 18.38% and 23.04% and 22.62% and 25.86% and 12.75%, the “CD25^+ CTL cells … (×10^5)” value (G3: 1 mg/kg, group mean) was 1.33 ×10^5 and the “CD25^+ CTL cells (CD45^+CD8^+ CD25^+) CTL Gated %” value (G3: 1 mg/kg, group mean) was 5.25%. The “CD25^+ CTL cells (CD45^+CD8^+ CD25^+) Total %” value (G3: 1 mg/kg, group mean) was 1.71%, the “CD69^+ CTL cells (CD45^+ CD8^+CD69^+) CTL Gated %” value (G3: 1 mg/kg, group mean) was 71.92% and the “CD69^+ CTL cells … (×10^5)” value (G3: 1 mg/kg, group mean) was 18.65 ×10^5. For the same compound, the “CD69^+ CTL cells (CD45^+ CD8^+CD69^+) Total %” value (G3: 1 mg/kg, group mean) was 25.02%, the “CTL cells (CD45^+CD8^+) CD45^+ Gated %” value (G3: 1 mg/kg, group mean) was 55.81% and the “CTL cells (CD45^+CD8^+) Cell count (×10^5)” value (G3: 1 mg/kg, group mean) was 25.42 ×10^5. For the same compound, the “CTL cells (CD45^+CD8^+) Total %” value (G3: 1 mg/kg, group mean) was 33.50%, the “Granzyme B^+ CTL cells (CD45^+ CD8^+GrB+) CTL Gated %” value (G3: 1 mg/kg, group mean) was 88.17% and the “Granzyme B^+ CTL cells … (×10^5)” value (G3: 1 mg/kg, group mean) was 23.13 ×10^5. For the same compound, the “Granzyme B^+ CTL cells (CD45^+ CD8^+GrB+) Total %” value (G3: 1 mg/kg, group mean) was 30.40%, the “IFN-γ^+ CTL cells (CD45^+ CD8^+ IFN-γ^+) CTL Gated %” value (G3: 1 mg/kg, group mean) was 0.63% and the “IFN-γ^+ CTL cells … (×10^5)” value (G3: 1 mg/kg, group mean) was 0.15 ×10^5. For the same compound, the “IFN-γ^+ CTL cells (CD45^+ CD8^+ IFN-γ^+) Total %” value (G3: 1 mg/kg, group mean) was 0.21%, the “PD-1^+ CTL cells (CD45^+CD8^+ PD-1^+) CTL Gated %” value (G3: 1 mg/kg, group mean) was 75.93% and the “PD-1^+ CTL cells … (×10^5)” value (G3: 1 mg/kg, group mean) was 19.17 ×10^5. The “PD-1^+ CTL cells (CD45^+CD8^+ PD-1^+) Total %” value (G3: 1 mg/kg, group mean) was 24.78%, the “CD25^+ CTL cells … (×10^5)” value (G3: 1 mg/kg, individual mice) was 0.43 ×10^5 and 1.29 ×10^5 and 0.89 ×10^5 and 1.55 ×10^5 and 1.91 ×10^5 and 1.90 ×10^5 and the “CD25^+ CTL cells (CD45^+CD8^+ CD25^+) CTL Gated %” value (G3: 1 mg/kg, individual mice) was 3.38% and 2.85% and 4.07% and 7.29% and 6.05% and 7.84%. The “CD25^+ CTL cells (CD45^+CD8^+ CD25^+) Total %” value (G3: 1 mg/kg, individual mice) was 1.49% and 1.02% and 1.26% and 1.57% and 2.57% and 2.34%, the “CD69^+ CTL cells (CD45^+ CD8^+CD69^+) CTL Gated %” value (G3: 1 mg/kg, individual mice) was 80.80% and 70.50% and 83.69% and 59.32% and 76.33% and 60.89% and the “CD69^+ CTL cells … (×10^5)” value (G3: 1 mg/kg, individual mice) was 10.34 ×10^5 and 31.84 ×10^5 and 18.33 ×10^5 and 12.61 ×10^5 and 24.09 ×10^5 and 14.69 ×10^5. For the same compound, the “CD69^+ CTL cells (CD45^+ CD8^+CD69^+) Total %” value (G3: 1 mg/kg, individual mice) was 35.67% and 25.23% and 25.96% and 12.76% and 32.38% and 18.14%, the “CTL cells (CD45^+CD8^+) CD45^+ Gated %” value (G3: 1 mg/kg, individual mice) was 66.02% and 53.39% and 62.97% and 38.03% and 65.33% and 49.11% and the “CTL cells (CD45^+CD8^+) Cell count (×10^5)” value (G3: 1 mg/kg, individual mice) was 12.68 ×10^5 and 40.30 ×10^5 and 21.83 ×10^5 and 22.61 ×10^5 and 32.02 ×10^5 and 23.10 ×10^5. The “CTL cells (CD45^+CD8^+) Total %” value (G3: 1 mg/kg, individual mice) was 31.93% and 30.92% and 22.88% and 43.04% and 28.52%, the “Granzyme B^+ CTL cells (CD45^+ CD8^+GrB+) CTL Gated %” value (G3: 1 mg/kg, individual mice) was 90.46% and 99.18% and 89.16% and 96.01% and 95.94% and 58.25% and the “Granzyme B^+ CTL cells … (×10^5)” value (G3: 1 mg/kg, individual mice) was 11.76 ×10^5 and 39.25 ×10^5 and 20.44 ×10^5 and 21.59 ×10^5 and 31.75 ×10^5 and 14.00 ×10^5. For the same compound, the “Granzyme B^+ CTL cells (CD45^+ CD8^+GrB+) Total %” value (G3: 1 mg/kg, individual mice) was 40.55% and 31.10% and 28.95% and 21.85% and 17.29%.
